This is an account of results in ChEMBL document CHEMBL1136559, “Discovery, SAR, synthesis, pharmacokinetic and biochemical characterization of A-192411: a novel fungicidal lipopeptide-(I)” (Bioorg Med Chem Lett, 2003).

≈ marks a conversion by molar mass, not a printed value. Starred links: 1 amine or outer side, 2 acyl side, 3 side chain; linkers in the order of their positions; H or OH if unused. Positions of bridges follow the written chain, without caps; N, C: chain ends. Non-standard residues stand in square brackets, D forms with d. Residues, ends and D or L forms follow the SMILES beside them. *: point of attachment. pTerphenylCO(4''-OnC5H11) = CCCCCOc1ccc(-c2ccc(-c3ccc(C(=O)*)cc3)cc2)cc1; Pro(cis-4-guanidino) = NC(N)=N[C@@H]1CN[C@H](C(=O)O)C1; hTyr(3-COCH2NH2) = NCC(=O)c1cc(CC[C@H](N)C(=O)O)ccc1O; X3 = CCCCCCCCOc1ccc(N2CCN(c3ccc(C(=O)*)cc3)CC2)cc1; X5 = CCCCCCCCN1CCN(c2ccc(-c3ccc(C(=O)*)cc3)cc2)CC1; X6 = NCC(=O)[C@H]1C[C@@H](C(=O)[*:2])N([*:1])C1; Pro(4S-NH2) = N[C@@H]1CN[C@H](C(=O)O)C1; Hyp = O=C(O)[C@@H]1C[C@@H](O)CN1; Orn = NCCC[C@H](N)C(=O)O

Common to all, as to assay type: functional
Assay [1] deals with Candida albicans. The assay can be described thus: Antifungal activity against Candida albicans ATCC 38247. As to conditions: Candida albicans, ATCC 38247; read-out: MIC.
Assay [2] has as its system Candida albicans. The assay can be described thus: Antifungal activity against Candida albicans ATCC 62376. The following applies: Candida albicans, ATCC 62376; read-out: MIC.
In assay [3] the test system is Naganishia albida. The assay can be described thus: Antifungal activity against Cryptococcus albidus ATCC 34140. The following applies: Naganishia albida, ATCC 34140; read-out: MIC.
In assay [4] the test system is Candida albicans. The assay can be described thus: Antifungal activity against Candida albicans CCH 442. The following applies: Candida albicans; read-out: MIC.
Assay [5] concerns Aspergillus niger. The assay can be described thus: Antifungal activity against Aspergillus niger ATCC 16404. The following applies: Aspergillus niger, ATCC 16404; read-out: MIC.
Assay [6] deals with Kluyveromyces marxianus. The assay can be described thus: Antifungal activity against Candida kefyr ATCC 28838. As to conditions: Kluyveromyces marxianus, ATCC 28838; read-out: MIC.
The subject of assay [7] is Candida albicans. The assay can be described thus: Antifungal activity against Candida albicans ATCC 10231. The following applies: Candida albicans, ATCC 10231; read-out: MIC.
The subject of assay [8] is Candida albicans. The assay can be described thus: Antifungal activity against Candida albicans 579A. The following applies: Candida albicans; read-out: MIC.
The subject of assay [9] is Nakaseomyces glabratus. The assay can be described thus: Antifungal activity against Torulopsis glabrata ATCC 15545. As to conditions: Nakaseomyces glabratus, ATCC 15545; read-out: MIC.
Assay [10] concerns Candida albicans. The assay can be described thus: Antifungal activity against Candida albicans CAF-2. The following applies: Candida albicans; read-out: MIC.
Assay [11] has as its system [Candida] zeylanoides. The assay can be described thus: Antifungal activity against Candida zeylanoides NRRL Y-112. The following applies: Dujonia zeylanoides; read-out: MIC.

By MIC is commonly meant the smallest concentration in the dilution series that meets the test's criterion for growth inhibition. In the case of `CCCCCCCCOc1ccc(N2CCN(c3ccc(C(=O)N[C@H]4CCCNC(=O)[C@@H]5C[C@H](N=C(N)N)CN5C(=O)[C@H]([C@@H](C)O)NC(=O)[C@H](CCc5ccc(O)c(C(=O)CN)c5)NC(=O)[C@@H]5C[C@@H](O)CN5C(=O)[C@H]([C@@H](C)O)NC4=O)cc3)CC2)cc1` (X3-[Orn]T[Hyp][hTyr(3-COCH2NH2)]T[Pro(cis-4-guanidino)]; lactam 1-C), the MIC in assay [1] was determined as 0.39 µg/mL (≈ 0.322 µM); in assay [2], 0.78 µg/mL (≈ 0.644 µM); in assay [3], 6.25 µg/mL (≈ 5.16 µM); in assay [4] it was 0.78 µg/mL (≈ 0.644 µM); in assay [5], 6.25 µg/mL (≈ 5.16 µM); in assay [6], 0.78 µg/mL (≈ 0.644 µM). The MIC is 0.78 µg/mL (≈ 0.644 µM) in assay [7]; 0.39 µg/mL (≈ 0.322 µM) in assay [8]; 0.78 µg/mL (≈ 0.644 µM) in [9]; 0.1 µg/mL (≈ 0.0826 µM) in [10]; 3.12 µg/mL (≈ 2.58 µM) in assay [11].

Turning to `CCCCCCCCOc1ccc(N2CCN(c3ccc(C(=O)N[C@H]4CCCNC(=O)[C@@H]5C[C@H](C(=O)CN)CN5C(=O)[C@H]([C@@H](C)O)NC(=O)[C@H](CCc5ccc(O)c(C(=O)CN)c5)NC(=O)[C@@H]5C[C@@H](O)CN5C(=O)[C@H]([C@@H](C)O)NC4=O)cc3)CC2)cc1` (X3-[Orn]T[Hyp][hTyr(3-COCH2NH2)]T[X6]; lactam 1-C), the MIC in assay [1] was found to be 0.39 µg/mL (≈ 0.322 µM); in assay [2], 0.39 µg/mL (≈ 0.322 µM); in assay [3], 12.5 µg/mL (≈ 10.3 µM); in assay [4], 0.78 µg/mL (≈ 0.644 µM); in assay [5], 12.5 µg/mL (≈ 10.3 µM); in assay [6], 1.56 µg/mL (≈ 1.29 µM). The minimum inhibitory concentration (MIC) in assay [7] came to 0.78 µg/mL (≈ 0.644 µM); in assay [8] it was 0.78 µg/mL (≈ 0.644 µM); in assay [9], 1.56 µg/mL (≈ 1.29 µM); in [10] it was 0.1 µg/mL (≈ 0.0826 µM); in assay [11] it was 1.56 µg/mL (≈ 1.29 µM).

For the compound `CCCCCCCCN1CCN(c2ccc(-c3ccc(C(=O)N[C@H]4CCCNC(=O)[C@@H]5C[C@H](C(=O)CN)CN5C(=O)[C@H]([C@@H](C)O)NC(=O)[C@H](CCc5ccc(O)c(C(=O)CN)c5)NC(=O)[C@@H]5CCCN5C(=O)[C@H]([C@@H](C)O)NC4=O)cc3)cc2)CC1` (X5-[Orn]TP[hTyr(3-COCH2NH2)]T[X6]; lactam 1-C), the MIC in [1] came out at 0.78 µg/mL (≈ 0.662 µM); in assay [2], 0.39 µg/mL (≈ 0.331 µM); in assay [3] it was 25 µg/mL (≈ 21.2 µM); in [4] it was 0.39 µg/mL (≈ 0.331 µM); in assay [5], 25 µg/mL (≈ 21.2 µM); in assay [6], 1.56 µg/mL (≈ 1.32 µM). Also, the MIC was 0.39 µg/mL (≈ 0.331 µM) in [7]; 0.39 µg/mL (≈ 0.331 µM) in assay [8]; 1.56 µg/mL (≈ 1.32 µM) in assay [9]; 0.1 µg/mL (≈ 0.0849 µM) in assay [10]; 0.2 µg/mL (≈ 0.17 µM) in [11].

As for `CCCCCOc1ccc(-c2ccc(-c3ccc(C(=O)N[C@H]4CCCNC(=O)[C@@H]5C[C@H](N)CN5C(=O)[C@H]([C@@H](C)O)NC(=O)[C@H](CCc5ccc(O)c(C(=O)CN)c5)NC(=O)[C@@H]5C[C@@H](O)CN5C(=O)[C@H]([C@@H](C)O)NC4=O)cc3)cc2)cc1` ({pTerphenylCO(4''-OnC5H11)}-[Orn]T[Hyp][hTyr(3-COCH2NH2)]T[Pro(4S-NH2)]; lactam 1-C), the MIC came out at 0.2 µg/mL (≈ 0.179 µM) in assay [1]; 0.1 µg/mL (≈ 0.0894 µM) in assay [2]; 3.2 µg/mL (≈ 2.86 µM) in assay [3]; 0.01 µg/mL (≈ 0.00894 µM) in assay [4]; 0.2 µg/mL (≈ 0.179 µM) in assay [5]; 0.78 µg/mL (≈ 0.697 µM) in assay [6]. For the same compound, the MIC in assay [7] is 0.1 µg/mL (≈ 0.0894 µM); in assay [8] it was 0.01 µg/mL (≈ 0.00894 µM); in assay [9], 0.2 µg/mL (≈ 0.179 µM); in assay [10], 0.1 µg/mL (≈ 0.0894 µM); in [11], 0.1 µg/mL (≈ 0.0894 µM).

With `CCCCCOc1ccc(-c2ccc(-c3ccc(C(=O)N[C@H]4CCCNC(=O)[C@@H]5C[C@H](N=C(N)N)CN5C(=O)[C@H]([C@@H](C)O)NC(=O)[C@H](CCc5ccc(O)c(C(=O)CN)c5)NC(=O)[C@@H]5CCCN5C(=O)[C@H]([C@@H](C)O)NC4=O)cc3)cc2)cc1` ({pTerphenylCO(4''-OnC5H11)}-[Orn]TP[hTyr(3-COCH2NH2)]T[Pro(cis-4-guanidino)]; lactam 1-C), the MIC in assay [1] was found to be 0.39 µg/mL (≈ 0.341 µM); in assay [2], 0.2 µg/mL (≈ 0.175 µM); in assay [3], 25 µg/mL (≈ 21.8 µM); in assay [4], 0.2 µg/mL (≈ 0.175 µM); in [5], 25 µg/mL (≈ 21.8 µM); in assay [6], 1.56 µg/mL (≈ 1.36 µM). For the same compound, the MIC in assay [7] was determined as 0.39 µg/mL (≈ 0.341 µM); in [8], 0.2 µg/mL (≈ 0.175 µM); in [9], 0.39 µg/mL (≈ 0.341 µM); in [10] it was 0.1 µg/mL (≈ 0.0874 µM); in assay [11], 0.39 µg/mL (≈ 0.341 µM).
